# According to patent US11058678B2 (Enanta Pharmaceuticals, Inc., priority 2018, dated 2021):
# pEC50: −log10 of the molar value.
# System: HBV (2.2.15 cells)
# Test: Antiviral activity in 2.2.15 cells: reduction of viral product accumulation (qPCR of lysates, HBsAg or HBeAg ELISA)
# Format: cell-based, hepatitis B virus (HBV)
# Conditions: Hepatitis B virus, 120 h, day 5 post treatment, 50% reduction of viral product accumulation in lysates or supernatants vs no drug controls, readout (qPCR, HBsAg, HBeAg) not specified
# Summary of the method: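 HBV-producing 2.2.15 cells, 35,000/well, treated with 5-fold serial compound dilutions at 0.5% final DMSO for 5 days. Lysate HBV DNA by qPCR or supernatant HBsAg/HBeAg by ELISA; EC50 is 50% reduction versus no-drug control, binned A<0.1 μM, B 0.1-1 μM, C>1 μM.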
row,Structure (SMILES),pEC50
1,"COc1ccc(-c2cc3c(c4c2OCC4)C[C@@H](C(C)C)n2cc(C(=O)O)c(=O)cc2-3)cc1 [Example 115, (S)-5-isopropyl-12-(4-methoxyphenyl)-9-oxo-2,3,4,9-tetrahydro-5H-furo[3,2-f]pyrido[2,1-a]isoquinoline-8-carboxylic Acid]",< 6.00
2,"CC(C)(C)[C@@H]1Cc2c(cc(N3CC4(CCO4)C3)c3c2CCO3)-c2cc(=O)c(C(=O)O)cn21 [Example 120, (S)-5-(tert-butyl)-9-oxo-12-(1-oxa-6-azaspiro[3.3]heptan-6-yl)-2,3,4,9-tetrahydro-5H-furo[3,2-f]pyrido[2,1-a]isoquinoline-8-carboxylic Acid]",< 6.00
3,"COCCCOc1cc2c(cc1-c1ccoc1)-c1cc(=O)c(C(=O)O)cn1[C@H]1[C@@H]2COC1(C)C [Example 126, (3aS,12bR)-10-(furan-3-yl)-11-(3-methoxypropoxy)-3,3-dimethyl-7-oxo-3,3a,7,12b-tetrahydro-1H-furo[3,4-c]pyrido[2,1-a]isoquinoline-6-carboxylic Acid]",> 7.00
4,"CC(C)[C@@H]1Cc2c(cc(-c3ccc(Cl)cc3)c3c2CCO3)-c2cc(=O)c(C(=O)O)cn21 [Example 109, (S)-12-(4-chlorophenyl)-5-isopropyl-9-oxo-2,3,4,9-tetrahydro-5H-furo[3,2-f]pyrido[2,1-a]isoquinoline-8-carboxylic Acid]",< 6.00
5,"COCCCOc1cc2c(cc1-c1cccs1)-c1cc(=O)c(C(=O)O)cn1[C@H]1[C@@H]2COC1(C)C [Example 142, (3aS,12bR)-11-(3-methoxypropoxy)-3,3-dimethyl-7-oxo-10-(thiophen-2-yl)-3,3a,7,12b-tetrahydro-1H-furo[3,4-c]pyrido[2,1-a]isoquinoline-6-carboxylic Acid]",> 7.00
6,"COCCCOc1cc2c(cc1-c1ccc(OC(F)(F)F)cc1)-c1cc(=O)c(C(=O)O)cn1[C@H](C(C)(C)C)C2 [Example 37, (S)-6-(tert-butyl)-9-(3-methoxypropoxy)-2-oxo-10-(4-(trifluoromethoxy)phenyl)-6,7-dihydro-2H-pyrido[2,1-a]isoquinoline-3-carboxylic Acid]",< 6.00
7,"CC(C)[C@@H]1Cc2c(cc(N3CCCC3)c3c2CCO3)-c2cc(=O)c(C(=O)O)cn21 [Example 110, (S)-5-isopropyl-9-oxo-12-(pyrrolidin-1-yl)-2,3,4,9-tetrahydro-5H-furo[3,2-f]pyrido[2,1-a]isoquinoline-8-carboxylic Acid]",> 7.00
8,"CC(C)(C)[C@@H]1Cc2c(cc(-c3cccc(Cl)c3)c3c2CCO3)-c2cc(=O)c(C(=O)O)cn21 [Example 85, (S)-5-(tert-butyl)-12-(3-chlorophenyl)-9-oxo-2,3,4,9-tetrahydro-5H-furo[3,2-f]pyrido[2,1-a]isoquinoline-8-carboxylic Acid]",> 7.00
9,"CC(C)(C)[C@@H]1Cc2c(cc(-c3cnsc3)c3c2CCO3)-c2cc(=O)c(C(=O)O)cn21 [Example 73, (S)-5-(tert-butyl)-12-(isothiazol-4-yl)-9-oxo-2,3,4,9-tetrahydro-5H-furo[3,2-f]pyrido[2,1-a]isoquinoline-8-carboxylic Acid]",> 7.00
10,"COCCCOc1cc2c(cc1-c1cnnn1C)-c1cc(=O)c(C(=O)O)cn1[C@H](C(C)(C)C)C2 [Example 48, (S)-6-(tert-butyl)-9-(3-methoxypropoxy)-10-(1-methyl-1H-1,2,3-triazol-5-yl)-2-oxo-6,7-dihydro-2H-pyrido[2,1-a]isoquinoline-3-carboxylic Acid]",> 7.00
11,"CC1(C)Cc2c3c(cc(-c4ccsc4)c2O1)-c1cc(=O)c(C(=O)O)cn1[C@H](C(C)(C)C)C3 [Example 149, (S)-5-(tert-butyl)-2,2-dimethyl-9-oxo-12-(thiophen-3-yl)-2,3,4,9-tetrahydro-5H-furo[3,2-f]pyrido[2,1-a]isoquinoline-8-carboxylic Acid]",< 6.00
12,"CC(C)(C)[C@@H]1Cc2c(cc(-c3cn[nH]c3)c3c2CCO3)-c2cc(=O)c(C(=O)O)cn21 [Example 87, (S)-5-(tert-butyl)-9-oxo-12-(1H-pyrazol-4-yl)-2,3,4,9-tetrahydro-5H-furo[3,2-f]pyrido[2,1-a]isoquinoline-8-carboxylic Acid]",> 7.00
13,"COCCCOc1cc2c(cc1-c1cc(OC)nnc1OC)-c1cc(=O)c(C(=O)O)cn1[C@H](C(C)(C)C)C2 [Example 45, (S)-6-(tert-butyl)-10-(3,6-dimethoxypyridazin-4-yl)-9-(3-methoxypropoxy)-2-oxo-6,7-dihydro-2H-pyrido[2,1-a]isoquinoline-3-carboxylic Acid]",> 7.00
14,"CC(C)(C)[C@@H]1Cc2c(cc(N3CC4(COC4)C3)c3c2CCO3)-c2cc(=O)c(C(=O)O)cn21 [Example 119, (S)-5-(tert-butyl)-9-oxo-12-(2-oxa-6-azaspiro[3.3]heptan-6-yl)-2,3,4,9-tetrahydro-5H-furo[3,2-f]pyrido[2,1-a]isoquinoline-8-carboxylic Acid]",< 6.00
15,"CCc1nnc(-c2cc3c(cc2OCCCOC)C[C@@H](C(C)(C)C)n2cc(C(=O)O)c(=O)cc2-3)o1 [Example 43, (S)-6-(tert-butyl)-10-(5-ethyl-1,3,4-oxadiazol-2-yl)-9-(3-methoxypropoxy)-2-oxo-6,7-dihydro-2H-pyrido[2,1-a]isoquinoline-3-carboxylic Acid]",> 7.00
16,"COCCCOc1cc2c(cc1C1=COCCC1)-c1cc(=O)c(C(=O)O)cn1[C@H](C(C)(C)C)C2 [Example 42, (S)-6-(tert-butyl)-10-(3,4-dihydro-2H-pyran-5-yl)-9-(3-methoxypropoxy)-2-oxo-6,7-dihydro-2H-pyrido[2,1-a]isoquinoline-3-carboxylic Acid]",> 7.00
17,"CC(C)(C)[C@@H]1Cc2c(cc(C3CCCO3)c3c2CCO3)-c2cc(=O)c(C(=O)O)cn21 (stereo partly drawn) [Example 129, (5S)-5-(tert-butyl)-9-oxo-12-(tetrahydrofuran-2-yl)-2,3,4,9-tetrahydro-5H-furo[3,2-f]pyrido[2,1-a]isoquinoline-8-carboxylic Acid]",> 7.00
18,"COCCCOc1cc2c(cc1-c1ccc(OC(F)F)cc1)-c1cc(=O)c(C(=O)O)cn1[C@H](C(C)(C)C)C2 [Example 56, (S)-6-(tert-butyl)-10-(4-(difluoromethoxy)phenyl)-9-(3-methoxypropoxy)-2-oxo-6,7-dihydro-2H-pyrido[2,1-a]isoquinoline-3-carboxylic Acid]",> 7.00
19,"COCCCOc1cc2c(cc1-c1ccc3c(c1)OCCC3)-c1cc(=O)c(C(=O)O)cn1[C@H](C(C)(C)C)C2 [Example 39, (S)-6-(tert-butyl)-10-(chroman-7-yl)-9-(3-methoxypropoxy)-2-oxo-6,7-dihydro-2H-pyrido[2,1-a]isoquinoline-3-carboxylic Acid]",< 6.00
20,"CC(C)(C)[C@@H]1Cc2c(cc(-c3ccc(C(F)(F)F)cc3)c3c2CCO3)-c2cc(=O)c(C(=O)O)cn21 [Example 80, (S)-5-(tert-butyl)-9-oxo-12-(4-(trifluoromethyl)phenyl)-2,3,4,9-tetrahydro-5H-furo[3,2-f]pyrido[2,1-a]isoquinoline-8-carboxylic Acid]",< 6.00
21,"COCCCOc1cc2c(cc1-c1ccccc1F)-c1cc(=O)c(C(=O)O)cn1[C@H]1[C@@H]2COC1(C)C [Example 136, (3aS,12bR)-10-(2-fluorophenyl)-11-(3-methoxypropoxy)-3,3-dimethyl-7-oxo-3,3a,7,12b-tetrahydro-1H-furo[3,4-c]pyrido[2,1-a]isoquinoline-6-carboxylic Acid]",> 7.00
22,"CC(C)(C)[C@@H]1Cc2c(cc(-c3ccco3)c3c2CCO3)-c2cc(=O)c(C(=O)O)cn21 [Example 72, (S)-5-(tert-butyl)-12-(furan-2-yl)-9-oxo-2,3,4,9-tetrahydro-5H-furo[3,2-f]pyrido[2,1-a]isoquinoline-8-carboxylic Acid]",> 7.00
23,"COCCCOc1cc2c(cc1-c1ccccc1Cl)-c1cc(=O)c(C(=O)O)cn1[C@H]1[C@@H]2COC1(C)C [Example 139, (3aS,12bR)-10-(2-chlorophenyl)-11-(3-methoxypropoxy)-3,3-dimethyl-7-oxo-3,3a,7,12b-tetrahydro-1H-furo[3,4-c]pyrido[2,1-a]isoquinoline-6-carboxylic Acid]",> 7.00
24,"CC(C)(C)[C@@H]1Cc2c(cc(N3CCC3)c3c2CCO3)-c2cc(=O)c(C(=O)O)cn21 [Example 111, (S)-12-(azetidin-1-yl)-5-(tert-butyl)-9-oxo-2,3,4,9-tetrahydro-5H-furo[3,2-f]pyrido[2,1-a]isoquinoline-8-carboxylic Acid]",> 7.00
25,"CC1(C)Cc2c3c(cc(-c4ccn[nH]4)c2O1)-c1cc(=O)c(C(=O)O)cn1[C@H](C(C)(C)C)C3 [Example 146, (S)-5-(tert-butyl)-2,2-dimethyl-9-oxo-12-(1H-pyrazol-5-yl)-2,3,4,9-tetrahydro-5H-furo[3,2-f]pyrido[2,1-a]isoquinoline-8-carboxylic Acid]",< 6.00
26,CC(C)[C@@H]1Cc2c(cc(-n3cccn3)c3c2CCO3)-c2cc(=O)c(C(=O)O)cn21 [Example 116],> 7.00
27,"COCCCOc1cc2c(cc1N1CCCC1)-c1cc(=O)c(C(=O)O)cn1[C@@H](C(C)(C)C)C2 [Example 50, (R)-6-(tert-butyl)-9-(3-methoxypropoxy)-2-oxo-10-(pyrrolidin-1-yl)-6,7-dihydro-2H-pyrido[2,1-a]isoquinoline-3-carboxylic Acid]",> 7.00
28,"CC(C)(C)[C@@H]1Cc2c(cc(-c3cccnc3)c3c2CCO3)-c2cc(=O)c(C(=O)O)cn21 [Example 75, (S)-5-(tert-butyl)-9-oxo-12-(pyridin-3-yl)-2,3,4,9-tetrahydro-5H-furo[3,2-f]pyrido[2,1-a]isoquinoline-8-carboxylic Acid]",> 7.00
29,"CC(C)(C)[C@@H]1Cc2c(cc(-c3ccn[nH]3)c3c2CCO3)-c2cc(=O)c(C(=O)O)cn21 [Example 82, (S)-5-(tert-butyl)-9-oxo-12-(1H-pyrazol-5-yl)-2,3,4,9-tetrahydro-5H-furo[3,2-f]pyrido[2,1-a]isoquinoline-8-carboxylic Acid]",> 7.00
